Source: ChEMBL document CHEMBL1201862, “PubChem BioAssay data set” (2004)
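Results reflect a 48-hour exposure of cells in 96-well plates to compound at five concentrations. The concentration for 50% growth inhibition is given as GI50.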 The source made the active and inactive calls. Cut-off read from the data, not from the text of the source: active = GI50 up to about 1.1 µM and inactive = higher.

Legend:
Test in all cases: NCI tumour cell line growth inhibition, 48 h
DMS-273 = tested on: DMS-273
HOP-18 = tested on: HOP-18
LXFL 529 = tested on: LXFL 529
M19-MEL = tested on: M19-MEL
RXF 631 = tested on: RXF 631
SNB-78 = tested on: SNB-78
XF498 = tested on: XF498
NCI/ADR-RES = tested on: NCI/ADR-RES
T47D = tested on: T47D

For `C/C(CC(=O)Nc1ccc(NC(=O)C/C(C)=N\NC(N)=O)cc1)=N/NC(N)=O`, the GI50 (DMS-273) was > 37.1 µM (inactive), the GI50 (HOP-18) was 63 µM (inactive) and the GI50 (LXFL 529) was 65.9 µM (inactive). For the same compound, the GI50 (M19-MEL) was > 100 µM (inactive), the GI50 (RXF 631) was 33 µM (inactive) and the GI50 (SNB-78) was > 100 µM (inactive). The GI50 (XF498) was > 92.3 µM (inactive).
`COc1cccc2c1OC1Sc3ccccc3-c3nn(-c4ccccc4)c-2c31` (centres undefined) was tested, and the GI50 (DMS-273) was > 100 µM (inactive), the GI50 (HOP-18) was > 100 µM (inactive) and the GI50 (LXFL 529) was > 100 µM (inactive). The GI50 (M19-MEL) was > 100 µM (inactive), the GI50 (RXF 631) was > 100 µM (inactive) and the GI50 (SNB-78) was > 100 µM (inactive). For the same compound, the GI50 (XF498) was > 100 µM (inactive).
With `CN(C)CCNC(=O)c1cccc2[nH]c(-c3ccccc3)nc12` the GI50 (DMS-273) was 14.5 µM (inactive), the GI50 (HOP-18) was 11.9 µM (inactive) and the GI50 (M19-MEL) was 19.4 µM (inactive). For the same compound, the GI50 (RXF 631) was 24.4 µM (inactive) and the GI50 (SNB-78) was 32.1 µM (inactive).
For `CC1=C(c2cc(C(=O)Nc3nccs3)nc(NC#N)n2)Sc2ccccc2N1`, the GI50 (DMS-273) was > 100 µM (inactive), the GI50 (HOP-18) was > 100 µM (inactive) and the GI50 (LXFL 529) was > 100 µM (inactive). For the same compound, the GI50 (M19-MEL) was > 100 µM (inactive), the GI50 (RXF 631) was > 100 µM (inactive) and the GI50 (XF498) was > 100 µM (inactive).
In the case of `C[N+]1(C)C/C(=C\C=C\c2ccccc2)C(=O)/C(=C/C=C/c2ccccc2)C1`, the GI50 (DMS-273) is reported as 1.62 µM (inactive), the GI50 (HOP-18) is reported as > 42.2 µM (inactive) and the GI50 (LXFL 529) is reported as 2.98 µM (inactive). The GI50 (M19-MEL) was 7.06 µM (inactive), the GI50 (NCI/ADR-RES) was > 100 µM (inactive) and the GI50 (SNB-78) was 6.12 µM (inactive). The GI50 (T47D) was 17 µM (inactive) and the GI50 (XF498) was 8.49 µM (inactive).
In the case of `Fc1ccccc1C1CC(C(c2ccccc2)c2ccccc2)=Nc2ccccc2S1` (centres undefined), the GI50 (DMS-273) is reported as 4.76 µM (inactive), the GI50 (HOP-18) is reported as 16.2 µM (inactive) and the GI50 (LXFL 529) is reported as 4.23 µM (inactive). For the same compound, the GI50 (RXF 631) was 8.04 µM (inactive) and the GI50 (XF498) was 13.7 µM (inactive).
In the case of `O=C(NC(=O)c1ccccc1[N+](=O)[O-])Nc1ccc(Oc2ncc(Br)cn2)c(Cl)c1`, the GI50 (DMS-273) is reported as 0.0165 µM (active), the GI50 (HOP-18) is reported as 0.064 µM (active) and the GI50 (LXFL 529) is reported as 0.0302 µM (active). For the same compound, the GI50 (M19-MEL) was 0.0196 µM (active), the GI50 (NCI/ADR-RES) was 0.0198 µM (active) and the GI50 (RXF 631) was 0.0284 µM (active). For the same compound, the GI50 (T47D) was 0.0871 µM (active) and the GI50 (XF498) was 0.00723 µM (active).
For `Cc1cc(=O)n2c3c(c4c(cc13)c(CO)cc(=O)n4C)OC2`, the GI50 (DMS-273) was 8.85 µM (inactive), the GI50 (HOP-18) was 19.5 µM (inactive) and the GI50 (LXFL 529) was 5.07 µM (inactive). The GI50 (M19-MEL) was 12.2 µM (inactive), the GI50 (RXF 631) was 5.6 µM (inactive) and the GI50 (SNB-78) was 15 µM (inactive). For the same compound, the GI50 (XF498) was 10.7 µM (inactive).
In the case of `CCOC(=O)C1(c2ccccc2)CCC(=O)CC1`, the GI50 (DMS-273) is reported as > 100 µM (inactive), the GI50 (HOP-18) is reported as > 100 µM (inactive) and the GI50 (LXFL 529) is reported as > 100 µM (inactive). The GI50 (M19-MEL) was > 100 µM (inactive), the GI50 (RXF 631) was > 100 µM (inactive) and the GI50 (SNB-78) was > 100 µM (inactive).
`O=C(O)CCSC(=O)Nc1ccccc1Cl` was tested, and the GI50 (DMS-273) was > 100 µM (inactive), the GI50 (HOP-18) was > 100 µM (inactive) and the GI50 (LXFL 529) was > 100 µM (inactive). For the same compound, the GI50 (M19-MEL) was > 100 µM (inactive), the GI50 (RXF 631) was > 100 µM (inactive) and the GI50 (SNB-78) was > 100 µM (inactive). For the same compound, the GI50 (XF498) was > 100 µM (inactive).
With `CCCCCCCCCCCCNC(=S)OCCCC` the GI50 (DMS-273) was > 100 µM (inactive), the GI50 (HOP-18) was > 100 µM (inactive) and the GI50 (LXFL 529) was > 100 µM (inactive). The GI50 (M19-MEL) was 42.2 µM (inactive), the GI50 (RXF 631) was > 100 µM (inactive) and the GI50 (SNB-78) was > 100 µM (inactive). The GI50 (XF498) was > 100 µM (inactive).
`COc1cc2c(cc1OC)/C(=C\c1ccccc1N)C(=O)OC2` was tested, and the GI50 (DMS-273) was 10.7 µM (inactive), the GI50 (HOP-18) was 13.8 µM (inactive) and the GI50 (LXFL 529) was 4.65 µM (inactive). For the same compound, the GI50 (M19-MEL) was 15.2 µM (inactive) and the GI50 (RXF 631) was 9.75 µM (inactive).
With `NCCSSCc1ccccc1CSSCCN` the GI50 (DMS-273) was 48.9 µM (inactive), the GI50 (HOP-18) was > 100 µM (inactive) and the GI50 (LXFL 529) was 50 µM (inactive). The GI50 (M19-MEL) was 29.2 µM (inactive), the GI50 (RXF 631) was > 100 µM (inactive) and the GI50 (SNB-78) was > 100 µM (inactive). The GI50 (XF498) was > 100 µM (inactive).
In the case of `COC(=O)C1=CC2OC13CC1CCC3(C2=O)C1(C)C` (centres undefined), the GI50 (DMS-273) is reported as 11.2 µM (inactive), the GI50 (HOP-18) is reported as 6.46 µM (inactive) and the GI50 (LXFL 529) is reported as 4.49 µM (inactive). The GI50 (M19-MEL) was 11.5 µM (inactive), the GI50 (RXF 631) was 13.9 µM (inactive) and the GI50 (SNB-78) was 14.4 µM (inactive). The GI50 (XF498) was 3.77 µM (inactive).
With `O=[N+]([O-])C1C2C=CC(C2)[C@H]1c1ccccc1Cl` (some centres undefined) the GI50 (DMS-273) was > 100 µM (inactive), the GI50 (HOP-18) was > 100 µM (inactive) and the GI50 (LXFL 529) was 75 µM (inactive). For the same compound, the GI50 (RXF 631) was 76.2 µM (inactive), the GI50 (SNB-78) was > 100 µM (inactive) and the GI50 (XF498) was > 77.1 µM (inactive).
With `N#C/C(=C\c1ccc(O)c(O)c1)C(N)=S` [TYRPHOSTIN 47] the GI50 (DMS-273) was > 79.1 µM (inactive), the GI50 (HOP-18) was > 100 µM (inactive) and the GI50 (LXFL 529) was 72.8 µM (inactive). For the same compound, the GI50 (M19-MEL) was > 100 µM (inactive), the GI50 (SNB-78) was > 100 µM (inactive) and the GI50 (XF498) was > 100 µM (inactive).
